Results on 14 molecules are retold here after ChEMBL document CHEMBL5291721, “A preclinical secondary pharmacology resource illuminates target-adverse drug reaction associations of marketed drugs” (Nat Commun, 2023).

The target in test [1] is T1, Alpha-2B adrenergic receptor (Homo sapiens, UniProt P18089).
T1 sequence (P18089 whole entry): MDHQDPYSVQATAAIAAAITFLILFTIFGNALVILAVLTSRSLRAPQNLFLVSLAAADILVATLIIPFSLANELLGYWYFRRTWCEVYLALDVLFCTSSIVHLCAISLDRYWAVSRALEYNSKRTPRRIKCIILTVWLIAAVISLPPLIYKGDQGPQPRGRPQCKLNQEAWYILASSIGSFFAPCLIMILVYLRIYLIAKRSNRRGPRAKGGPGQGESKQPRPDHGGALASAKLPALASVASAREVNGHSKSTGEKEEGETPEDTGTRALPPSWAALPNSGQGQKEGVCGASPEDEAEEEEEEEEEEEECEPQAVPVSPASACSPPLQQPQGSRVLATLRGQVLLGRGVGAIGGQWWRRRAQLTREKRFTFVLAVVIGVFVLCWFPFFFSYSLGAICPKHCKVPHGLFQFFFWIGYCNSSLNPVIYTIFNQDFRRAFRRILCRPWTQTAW

Test [2] addresses Muscarinic acetylcholine receptor M3 (Homo sapiens, UniProt P20309).
In a further test the target is T2, Progesterone receptor (Homo sapiens, UniProt P06401).
T2 sequence (P06401 whole entry): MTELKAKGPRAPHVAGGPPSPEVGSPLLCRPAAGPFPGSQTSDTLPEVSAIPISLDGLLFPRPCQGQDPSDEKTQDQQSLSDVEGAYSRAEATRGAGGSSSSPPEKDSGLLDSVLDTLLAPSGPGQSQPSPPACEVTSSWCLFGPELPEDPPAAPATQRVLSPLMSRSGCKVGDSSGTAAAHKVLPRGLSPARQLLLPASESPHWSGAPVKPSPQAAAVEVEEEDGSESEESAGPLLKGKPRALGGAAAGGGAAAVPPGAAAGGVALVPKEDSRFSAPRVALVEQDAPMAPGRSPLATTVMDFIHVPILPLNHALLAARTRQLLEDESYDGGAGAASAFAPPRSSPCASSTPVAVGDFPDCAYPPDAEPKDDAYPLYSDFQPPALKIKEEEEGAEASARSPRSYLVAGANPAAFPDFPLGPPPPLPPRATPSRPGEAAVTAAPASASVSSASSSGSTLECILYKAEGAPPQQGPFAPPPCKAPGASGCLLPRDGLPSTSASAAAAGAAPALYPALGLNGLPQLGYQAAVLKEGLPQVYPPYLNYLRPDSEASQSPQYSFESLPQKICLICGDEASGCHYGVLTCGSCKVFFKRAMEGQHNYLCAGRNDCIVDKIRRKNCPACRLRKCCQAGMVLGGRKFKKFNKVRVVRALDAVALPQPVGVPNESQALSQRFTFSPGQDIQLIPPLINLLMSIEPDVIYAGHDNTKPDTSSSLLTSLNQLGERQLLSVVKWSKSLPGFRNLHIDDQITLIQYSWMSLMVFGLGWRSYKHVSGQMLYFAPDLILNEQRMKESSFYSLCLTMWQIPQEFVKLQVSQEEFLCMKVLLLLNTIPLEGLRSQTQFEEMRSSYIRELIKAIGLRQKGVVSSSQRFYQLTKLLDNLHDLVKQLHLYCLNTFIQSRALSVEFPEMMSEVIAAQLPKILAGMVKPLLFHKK
It is filed as functional.

The target in test [3] is Beta-2 adrenergic receptor (Homo sapiens, UniProt P07550).
The target in test [4] is Voltage-dependent L-type calcium channel subunit alpha-1C (Rattus norvegicus, UniProt P22002). It is filed as functional.
Also: assay procedure not described here.

Sequence of Voltage-dependent L-type calcium channel subunit alpha-1C (P22002 whole entry): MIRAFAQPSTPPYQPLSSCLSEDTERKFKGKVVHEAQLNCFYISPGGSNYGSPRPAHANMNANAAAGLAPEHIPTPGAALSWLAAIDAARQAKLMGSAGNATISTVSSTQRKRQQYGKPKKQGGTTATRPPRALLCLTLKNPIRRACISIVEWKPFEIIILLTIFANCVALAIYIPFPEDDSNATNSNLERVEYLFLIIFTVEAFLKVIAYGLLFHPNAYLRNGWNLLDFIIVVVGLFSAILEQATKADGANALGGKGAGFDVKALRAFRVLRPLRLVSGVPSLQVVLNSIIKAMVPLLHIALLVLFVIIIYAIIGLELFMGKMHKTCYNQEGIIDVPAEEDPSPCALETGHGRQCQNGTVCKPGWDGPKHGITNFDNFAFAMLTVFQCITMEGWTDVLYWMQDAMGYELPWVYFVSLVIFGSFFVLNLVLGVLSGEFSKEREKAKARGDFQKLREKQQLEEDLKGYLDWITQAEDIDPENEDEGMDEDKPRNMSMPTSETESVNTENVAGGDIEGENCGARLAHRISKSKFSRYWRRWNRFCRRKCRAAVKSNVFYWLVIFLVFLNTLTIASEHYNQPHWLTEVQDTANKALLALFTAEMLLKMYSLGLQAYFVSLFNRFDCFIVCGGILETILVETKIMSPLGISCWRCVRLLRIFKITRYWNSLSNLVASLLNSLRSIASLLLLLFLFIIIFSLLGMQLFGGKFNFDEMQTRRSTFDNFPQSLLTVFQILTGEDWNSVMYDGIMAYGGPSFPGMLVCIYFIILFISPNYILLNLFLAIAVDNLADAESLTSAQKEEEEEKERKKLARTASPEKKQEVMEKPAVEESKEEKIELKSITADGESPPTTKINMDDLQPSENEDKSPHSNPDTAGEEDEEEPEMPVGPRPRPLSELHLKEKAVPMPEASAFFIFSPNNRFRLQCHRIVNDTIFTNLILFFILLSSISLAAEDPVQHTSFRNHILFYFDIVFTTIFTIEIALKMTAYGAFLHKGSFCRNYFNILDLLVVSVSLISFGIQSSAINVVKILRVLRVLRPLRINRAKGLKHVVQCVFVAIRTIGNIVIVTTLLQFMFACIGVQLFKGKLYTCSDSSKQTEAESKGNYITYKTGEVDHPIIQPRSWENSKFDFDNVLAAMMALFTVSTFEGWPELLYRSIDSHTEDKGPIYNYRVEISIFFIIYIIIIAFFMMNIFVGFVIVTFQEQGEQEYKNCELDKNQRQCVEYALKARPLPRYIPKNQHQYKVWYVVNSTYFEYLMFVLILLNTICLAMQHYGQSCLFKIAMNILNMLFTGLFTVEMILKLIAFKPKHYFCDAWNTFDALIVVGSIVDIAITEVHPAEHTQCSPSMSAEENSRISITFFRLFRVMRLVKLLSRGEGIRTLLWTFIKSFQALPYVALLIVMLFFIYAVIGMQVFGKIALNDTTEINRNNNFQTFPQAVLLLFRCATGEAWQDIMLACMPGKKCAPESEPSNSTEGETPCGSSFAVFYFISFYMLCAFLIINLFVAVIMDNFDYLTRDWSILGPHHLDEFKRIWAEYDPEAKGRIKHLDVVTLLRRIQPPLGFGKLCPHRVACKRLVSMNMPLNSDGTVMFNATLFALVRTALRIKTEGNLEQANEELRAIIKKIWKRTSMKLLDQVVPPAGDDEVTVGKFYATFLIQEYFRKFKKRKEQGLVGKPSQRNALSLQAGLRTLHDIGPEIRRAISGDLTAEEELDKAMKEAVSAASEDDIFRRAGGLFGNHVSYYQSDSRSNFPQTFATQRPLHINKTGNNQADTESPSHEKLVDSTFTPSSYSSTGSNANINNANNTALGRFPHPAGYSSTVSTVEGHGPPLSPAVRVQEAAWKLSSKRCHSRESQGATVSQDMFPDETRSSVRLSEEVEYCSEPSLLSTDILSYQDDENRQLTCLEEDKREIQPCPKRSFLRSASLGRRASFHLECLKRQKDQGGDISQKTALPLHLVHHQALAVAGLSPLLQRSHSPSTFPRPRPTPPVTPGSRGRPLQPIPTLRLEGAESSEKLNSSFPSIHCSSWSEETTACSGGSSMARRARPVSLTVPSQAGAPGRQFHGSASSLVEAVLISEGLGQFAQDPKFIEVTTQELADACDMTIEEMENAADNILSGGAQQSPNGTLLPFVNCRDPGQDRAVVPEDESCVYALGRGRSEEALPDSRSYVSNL
Sequence of Beta-2 adrenergic receptor (P07550 whole entry): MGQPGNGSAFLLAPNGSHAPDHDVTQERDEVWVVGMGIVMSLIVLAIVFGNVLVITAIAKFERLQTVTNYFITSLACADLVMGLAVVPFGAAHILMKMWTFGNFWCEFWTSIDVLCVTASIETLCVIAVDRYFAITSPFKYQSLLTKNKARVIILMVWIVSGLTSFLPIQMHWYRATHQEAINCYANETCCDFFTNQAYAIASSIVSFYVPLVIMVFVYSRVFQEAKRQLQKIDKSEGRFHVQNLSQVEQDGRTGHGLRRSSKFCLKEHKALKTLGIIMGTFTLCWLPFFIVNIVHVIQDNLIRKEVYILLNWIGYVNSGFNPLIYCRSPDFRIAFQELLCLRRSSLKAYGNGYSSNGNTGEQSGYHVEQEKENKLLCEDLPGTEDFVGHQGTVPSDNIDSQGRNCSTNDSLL
Sequence of Muscarinic acetylcholine receptor M3 (P20309 whole entry): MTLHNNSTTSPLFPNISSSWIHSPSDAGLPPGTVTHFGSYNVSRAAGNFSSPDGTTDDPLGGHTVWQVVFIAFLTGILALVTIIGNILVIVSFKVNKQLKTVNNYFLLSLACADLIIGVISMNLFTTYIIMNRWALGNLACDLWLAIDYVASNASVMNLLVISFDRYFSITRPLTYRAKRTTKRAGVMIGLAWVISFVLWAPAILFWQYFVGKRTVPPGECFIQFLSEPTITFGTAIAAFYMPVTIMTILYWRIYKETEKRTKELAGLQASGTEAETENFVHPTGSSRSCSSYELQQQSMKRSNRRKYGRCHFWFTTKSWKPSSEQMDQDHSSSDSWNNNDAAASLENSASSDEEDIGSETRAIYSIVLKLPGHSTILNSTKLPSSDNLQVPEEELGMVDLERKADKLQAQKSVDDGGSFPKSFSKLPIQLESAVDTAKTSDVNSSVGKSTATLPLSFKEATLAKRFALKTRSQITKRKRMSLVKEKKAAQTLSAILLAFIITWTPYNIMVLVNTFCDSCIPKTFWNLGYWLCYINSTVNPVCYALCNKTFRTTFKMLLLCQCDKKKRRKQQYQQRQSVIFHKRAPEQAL

For the molecule `CC(C)(C)C(=O)OCC(=O)[C@H]1CC[C@H]2[C@@H]3CCC4=CC(=O)CC[C@]4(C)[C@H]3CC[C@]12C` [DESOXYCORTICOSTERONE PIVALATE], the concentration at half-maximal activity (AC50) in test [1] was > 10 µM; in test [2], > 30 µM; at Progesterone receptor, 0.213 µM; in test [3], > 10 µM; in test [4], > 10 µM.
`CCC(=O)O[C@H]1CC[C@H]2[C@@H]3CCC4=CC(=O)CC[C@]4(C)[C@H]3CC[C@]12C` [TESTOSTERONE PROPIONATE]: the AC50 is > 10 µM in test [1]; > 10 µM in test [2]; 0.328 µM on Progesterone receptor; > 10 µM in test [3]; > 10 µM in test [4].
`C=CCNc1nc(NCC=C)nc(N2CCN(C(c3ccc(F)cc3)c3ccc(F)cc3)CC2)n1` [ALMITRINE]: the AC50 (in test [1]; in test [2]; at Progesterone receptor; in test [3]; in test [4]) was > 30 µM throughout.
For the molecule `COc1cc(N)c(Cl)cc1C(=O)NC1CCN(Cc2ccccc2)CC1` [CLEBOPRIDE], the AC50 in test [1] is 18 µM; in test [2] it was > 30 µM; at Progesterone receptor it was > 30 µM; in test [3], > 30 µM; in test [4], > 30 µM.
As to `CC(C)[C@H](N)C(=O)OCC(CO)OCn1cnc2c(=O)nc(N)[nH]c21` (stereo not given in full) [VALGANCICLOVIR], the AC50 (in test [1]; in test [2]; at Progesterone receptor; in test [3]; in test [4]) was > 30 µM each time.
Turning to `CC1(C)S[C@@H]2[C@H](NC(=O)[C@H](N)c3ccccc3)C(=O)N2[C@H]1C(=O)OCOC(=O)[C@@H]1N2C(=O)C[C@H]2S(=O)(=O)C1(C)C` [SULTAMICILLIN], the AC50 (in test [1]; in test [2]; on Progesterone receptor; in test [3]; in test [4]) was > 30 µM throughout.
With `C[C@]12CCC(=O)C(O)=C1CC[C@@H]1[C@@H]2CC[C@]2(C)C(=O)CC[C@@H]12` [FORMESTANE], the AC50 in test [1] was > 30 µM; in test [2] it was > 30 µM; on Progesterone receptor, 3.7 µM; in test [3], > 30 µM; in test [4] it was > 30 µM.
Take `OC1(c2ccc(Cl)cc2)c2ccccc2C2=NCCN21` (stereo not given) [MAZINDOL]: the AC50 is > 30 µM in test [1]; > 30 µM in test [2]; > 30 µM at Progesterone receptor; > 30 µM in test [3]; > 10 µM in test [4].
`CC1OC2(CS1)CN1CCC2CC1` (stereo not given) [CEVIMELINE]: the AC50 in test [1] was > 30 µM; in test [2], > 30 µM; at Progesterone receptor, > 10 µM; in test [3] it was > 10 µM; in test [4] it was > 10 µM.
On to `Cc1cc(C(C)(C)C)cc(C)c1CC1=NCCN1` [XYLOMETAZOLINE], for which the concentration at half-maximal activity (AC50) in test [1] was 0.208 µM; in test [2], 10 µM; at Progesterone receptor, > 30 µM; in test [3] it was > 30 µM; in test [4], > 30 µM.
For `CN(C)CCCNc1c2ccccc2nc2cccc([N+](=O)[O-])c12` [NITRACRINE], the AC50 in test [1] is 22 µM; in test [2] it was 19 µM; on Progesterone receptor, > 30 µM; in test [3] it was > 30 µM; in test [4] it was > 30 µM.
For the molecule `CC(C)COCC(CN(Cc1ccccc1)c1ccccc1)N1CCCC1` (stereo not given) [BEPRIDIL], the half-maximal activity concentration (AC50) in test [1] is 6.2 µM; in test [2], 17 µM; at Progesterone receptor it was > 30 µM; in test [3], > 30 µM; in test [4] it was 24 µM.
For the molecule `CCC1(c2ccccc2)CCC(=O)NC1=O` (stereo not given) [GLUTETHIMIDE], the AC50 in test [1] was > 10 µM; in test [2], > 30 µM; on Progesterone receptor, > 10 µM; in test [3], > 10 µM; in test [4], > 10 µM.
Turning to `CCOC(=O)c1cncn1[C@H](C)c1ccccc1` [ETOMIDATE], the AC50 in test [1] was > 10 µM; in test [2], > 30 µM; at Progesterone receptor, > 10 µM; in test [3], > 10 µM; in test [4], > 10 µM.
